This passage reports EC50, IC50 and outcome results from PubChem BioAssay AID179 (DTP/NCI, 2004).

Activity calls are given as the source filed them.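 How the source made its calls: active means compounds giving half or more protection of infected cells from virus-caused growth loss, again on retest; inactive means the rest.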 A value given as a limit tells only on which side of the number the result lay.

The subject of this assay is CEM cells HIV-1 protection, formazan growth assay. The experiment in a line: NCI AIDS Antiviral Assay. The note with it: for IC50: measured here: growth of uninfected CEM cells. The method in brief: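 Human CEM cells, uninfected and HIV-1-infected, exposed to five drug concentrations; growth measured by soluble formazan assay and scored as percent protection from infection, with protecting compounds retested.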

With `COc1ccc(C(=O)N2c3ccccc3N(C)n3cccc3C2CC(=O)O)cc1` (stereo unspecified), the EC50 (usually the concentration at which the effect is half-maximal) was over 646 µM and the IC50 (usually the midpoint of a concentration-inhibition curve) was 234 µM.
For `O=C(c1ccccc1)c1nc2ccc(Cl)cc2c2c1CCCO2` the same measures were over 16.2 µM and over 16.2 µM.
Turning to `Cc1cccc(NC(=O)C(=O)C(C(=O)c2ccc3ccccc3c2)C2OC(=O)c3ccccc32)c1C` (stereo unspecified), the EC50 was over 28.2 µM and the IC50 stood at 26.3 µM.
`COC(=O)N1CC(=O)C(C(=O)NC23CC4CC(CC(C4)C2)C3)C1` (stereo unspecified): the EC50 is over 776 µM and the IC50 was found to be 141 µM.
For `Cc1cn(C2CCC(CO)O2)c(=O)[nH]c1=O` (stereo unspecified) the same measures were 162 µM and over 200 µM.
`Cc1cc(Br)cc(C)c1NC(=O)C(=O)C(C(=O)c1ccc2ccccc2c1)C1OC(=O)c2ccccc21` (stereo unspecified): the EC50 is over 64.6 µM and the half-maximal inhibitory concentration (IC50) was 12.9 µM.
As for `CCOC(=O)C1=C(Nc2ccc(Cl)c(Cl)c2)OC/C1=N\NS(=O)(=O)c1ccc(C)cc1`, the EC50 is over 74.1 µM and the half-inhibitory concentration (IC50) is 64.6 µM.
For `CCOC(=O)/C(=N\OC)C(O)C(F)(F)F` (stereo unspecified) the same measures were over 200 µM and over 200 µM.
`COc1ccc(C(c2ccc3cccnc3c2O)c2oc(CO)cc(=O)c2O)cc1` (stereo unspecified): the outcome was inactive.
As to `Cc1nc(C(=O)O)c(C(=O)O)[nH]1`, the EC50 was over 200 µM and the concentration for half-maximal inhibition (IC50) is over 200 µM.
Regarding `COc1cc(NC(C)=O)c2[nH]c3c(C)cc(NC(C)=O)c(C)c3c2c1`, the outcome was inactive.
As to `NC(=O)c1oc([N+](=O)[O-])c(-c2ccccc2)c1-c1ccccc1`, the EC50 was over 200 µM and the IC50 worked out at 15.1 µM.
For `Cc1cc(C)c(-c2no/c(=N\S(=O)(=O)c3ccc(Cl)cc3)o2)c(C)c1` the same measures were over 200 µM and over 200 µM.
Consider `Cc1ccc(C)c2c1n1c(=O)n(C)c(=O)n21`, for which the EC50 is over 200 µM and the IC50 is over 200 µM.
As to `Nc1ccccc1/C(O)=C1/CCOC1=O`, the EC50 is over 7.08 µM and the IC50 is over 7.08 µM.
As for `COC(OC)C(O)C1OC=CC1n1cnc2c(N)ncnc21` (stereo unspecified), the EC50 is over 200 µM and the IC50 was over 200 µM.
For `CCc1ccc(C2=C(O)C(=O)C(c3ccccc3)=C(O)C2=O)cc1`, the EC50 was over 87.1 µM and the IC50 came out at 44.7 µM.
`CC(C)Oc1cc2c(c3oc(=O)c4c(c13)CCCC4)C(=O)[C@H](C)[C@@H](C)O2`: the EC50 is over 200 µM and the 50% inhibitory concentration (IC50) was found to be 12.3 µM.
In the case of `COc1nc(OC)c2c(=O)oc(-c3ccccc3)cc2n1`, the outcome was inactive.
`c1ccc(C2SCc3nc4ccccc4n32)cc1` (stereo unspecified): the EC50 was over 141 µM and the half-maximal inhibitory concentration (IC50) was 35.5 µM.
As for `Cc1ccc(S(=O)(=O)N(C)CC(=O)c2ccccc2)cc1`, the EC50 was over 117 µM and the IC50 was over 117 µM.
For the compound `CCOc1ccccc1NC(=O)/C=C1\NC(=O)CS1`, the EC50 is over 158 µM and the IC50 amounted to 129 µM.
Turning to `O=C1O[C@H](COC(=O)c2ccccc2)[C@@H](OC(=O)c2ccccc2)C=C1OC(=O)c1ccccc1`, the EC50 was over 200 µM and the concentration for half-maximal inhibition (IC50) was found to be 20.4 µM.
Take `c1ccc(CNC2C(c3ccccc3)=NN(c3ccccc3)C2c2ccccc2)cc1` (stereo unspecified): the EC50 is over 200 µM and the IC50 was over 200 µM.
Take `CCOC(=O)c1ncoc1[C@H]1COC(C)(C)O1`: the result was inactive.
`COC(=O)[C@@H]1C[C@@H](O)CN1C(=O)c1ccc([N+](=O)[O-])cc1[N+](=O)[O-]`: the EC50 was over 200 µM and the IC50 came to 129 µM.
For the compound `O=C1N=C(C=c2ccc(=Cc3[nH]c(=O)[nH]c3O)cc2)C(=O)N1`, the EC50 was 132 µM and the IC50 was over 200 µM.
For `Cc1nc(C(N)=S)sc1/C(CC(=O)C(=O)Nc1cccc2ccc(O)cc12)=N\NC(=O)c1ccncc1` the same measures were over 35.5 µM and over 35.5 µM.
As to `CC12CCC(C(=O)O1)C(C)(C)O2` (stereo unspecified), the EC50 was over 200 µM and the IC50 was over 200 µM.
Regarding `CCOC(=O)C(=CNC(=S)Nc1c(CC)cccc1CC)C(=O)OCC`, the EC50 was over 200 µM and the IC50 was over 200 µM.
As for `CCC1=C(OC)c2nc(C)ccc2C(=O)C1=O`, the result was inactive.
Same read-out and setting: as for `CC(C)(C)[C@H]1CO[C@]2(c3ccccc3)[C@@H]3C[C@@H]3C(=O)N12`, the entry is “inactive”.
As to `C=CCCC(=O)N1CCC(C(=O)OCC)C1=O` (stereo unspecified), the EC50 was over 200 µM and the IC50 was over 200 µM.
`CC(=O)Nc1ccc(C2=N/C(=C\c3ccc(Cl)c(Cl)c3)C(=O)O2)cc1`: the EC50 was over 7.24 µM and the IC50 is over 7.24 µM.
On to `CC(=O)O[C@H]1CCC2[C@@H]3CCC4C(=O)c5[nH]ncc5C[C@]4(C)C3CC[C@@]21C` (stereo partly specified), for which the EC50 was over 87.1 µM and the IC50 was over 87.1 µM.
On to `COCCCCCCCCCCCC(=O)O`, for which the EC50 is over 200 µM and the IC50 was over 200 µM.
As for `CC(=O)NC1C(OCc2ccccc2)OC(CO)C(O)C1OCC(=O)NC(C)C(=O)NC(CCC(=O)NCCCCNc1ccc([N+](=O)[O-])c2[nH]c3ccccc3c(=O)c12)C(N)=O` (stereo unspecified), the EC50 was 81.3 µM and the IC50 is over 100 µM.
The matching figures for `CC(C)OC(=O)c1ccc(NCC2=CC(=O)C=CC2=O)cc1Cl`: over 200 µM and 9.33 µM.
As for `COc1ccc2cc1Oc1ccc(cc1)C[C@H]1NCCc3cc(OC)c(cc31)Oc1c(O)c(OC)cc3c1CCN(C)C3C2` (stereo partly specified), the outcome was inactive.
Regarding `CCCCCCCCCCCCCCCCOC(=O)c1cc(OCCOP(=O)(O)O)cc(C(=O)OCCCCCCCCCCCCCCCC)c1`, the outcome was inactive.
Turning to `Cc1c(Cl)nc(Nc2nc3ccccc3[nH]2)nc1Cl`, the outcome was inactive.
Consider `O=C(N/C=C(/c1ccccc1)S(=O)Cc1ccccc1)Nc1ccccc1Cl` (stereo unspecified), for which the EC50 is over 501 µM and the IC50 was 17.4 µM.
The matching figures for `Cc1c(O)c(C)c2c(C)cn(C(=O)C(C)(C)C)c2c1C`: over 200 µM and 30.2 µM.
For `CC(=O)Oc1c(Br)cc(-c2oc(-c3cc(Br)c(OC(C)=O)c(Br)c3)c3ccccc23)cc1Br` the same measures were over 100 µM and 38.9 µM.
In the case of `Cc1cc(N(CCC#N)CCC#N)ccc1/C=C/C(=O)Nc1ccccc1Cl`, the EC50 is over 457 µM and the half-maximal inhibitory concentration (IC50) was over 457 µM.
Consider `O=c1cc(CCl)nc2c3ncn(C4OC(CO)C(O)C4O)c3ncn12` (stereo unspecified), for which the result was inactive.
As for `CCN(CC)C(=S)SS(=O)(=O)c1ccc(F)cc1`, the EC50 was over 200 µM and the IC50 is 18.6 µM.
For `COC(=O)c1c2c(cc3c1CC1(C3)Cc3ccc4c(c3C1=O)CCC4)CCC2` (stereo unspecified) the same measures were over 200 µM and 4.17 µM.
With `C/C=C1\CN(C)C2Cc3c([nH]c4ccccc34)[C@H](c3c(OC)ccc4c5c([nH]c34)C3(C(=O)OC)CC4CC(CC)C3N(CC5)C4)CC1C2C(=O)OC` (stereo partly specified), the outcome was inactive.
Turning to `CC(=O)NC1C(OCc2ccccc2)OC(CO)C(O)C1OC(C)C(=O)NC(C)C(=O)NC(CCC(=O)NCCCNc1c2ccccc2nc2cccc([N+](=O)[O-])c12)C(N)=O` (stereo unspecified), the EC50 is over 100 µM and the IC50 is 1.15 µM.
The matching figures for `O=C(Nc1ccccn1)Nc1cc(C(F)(F)F)ccc1Cl`: over 200 µM and 182 µM.
For `COc1ccccc1-c1n[nH]c(-c2ccccc2O)n1` the same measures were over 200 µM and over 200 µM.
Consider `C/C(=N/NC(=O)c1ccccc1Nc1ccccc1C(=O)N/N=C(\C)c1ccc(C)cc1)c1ccc(C)cc1`, for which the EC50 was over 20 µM and the 50% inhibitory concentration (IC50) stood at 8.91 µM.
The matching figures for `COc1cc2c(c(OC)c1OC)C(=O)C(Br)C2NC(=O)CCCCl` (stereo unspecified): over 200 µM and over 200 µM.
For the compound `COc1ccc(C(c2c(O)c3ccccc3oc2=O)c2c(O)c3ccccc3oc2=O)cc1`, the EC50 was over 200 µM and the IC50 was 87.1 µM.
For the compound `Oc1c([Si](c2ccccc2)(c2ccccc2)c2ccccc2)cc2ccccc2c1-c1c(O)c([Si](c2ccccc2)(c2ccccc2)c2ccccc2)cc2ccccc12`, the EC50 was over 50.1 µM and the IC50 was over 50.1 µM.
Take `COC1OC(=O)c2ccccc21` (stereo unspecified): the outcome was inactive.
Take `O=S(=O)(O)c1ccc2c(N=Nc3ccc(/C=C/c4ccc(N=Nc5c(O)ccc6cc(S(=O)(=O)O)ccc56)cc4S(=O)(=O)O)c(S(=O)(=O)O)c3)c(O)ccc2c1`: the EC50 was 7.76 µM and the half-maximal inhibitory concentration (IC50) was found to be 97.7 µM.
For `Cc1nnc2n1N=C(CC(=O)c1ccc(O)cc1O)CN2N` the same measures were over 832 µM and over 832 µM.
As to `COc1cc(N=Nc2ccc(C(=O)N(C)C)cc2)c(C)cc1N=Nc1c(O)c2ccccc2[nH]c1=O`, the EC50 is over 200 µM and the IC50 is over 200 µM.
As for `COC(=O)C1C(=O)CC[C@H]2CN3CCc4c([nH]c5ccccc45)C3CC12` (stereo partly specified), the EC50 was over 53.7 µM and the half-inhibitory concentration (IC50) was over 53.7 µM.
With `CCOC(=O)C1CN(C2CC2)CCC1=O` (stereo unspecified), the EC50 was over 200 µM and the IC50 is over 200 µM.
Regarding `CCOC(=O)CSc1nc(N)c2c(-c3ccc(OC)c(OC)c3)c3c(nc2n1)CCCC3`, the EC50 is over 200 µM and the IC50 was over 200 µM.
Turning to `Cn1c2c(c3ccccc31)CC(=O)N1CCCCC1C21OCCO1` (stereo unspecified), the EC50 was over 100 µM and the IC50 is over 100 µM.
As for `N/N=C1\CCCc2c1no[n+]2[O-]`, the EC50 was over 200 µM and the IC50 was over 200 µM.
Take `CC(C)=C=CP(=O)(O)c1ccccc1`: the EC50 was over 200 µM and the IC50 is over 200 µM.
On to `COC1(CC[C@H](C)COC2OC(CO)C(O)C(O)C2O)O[C@H]2C[C@H]3[C@@H]4CC=C5C[C@@H](OC6OC(CO)C(OC7OC(C)C(O)C(O)C7O)C(O)C6OC6OC(C)C(O)C(O)C6O)CC[C@]5(C)[C@H]4CC[C@]3(C)[C@H]2[C@@H]1C` (stereo partly specified), for which the EC50 was over 200 µM and the IC50 came out at 1.58 µM.
Turning to `CN(C)CC1CCC/C(=C\c2ccc(Cl)cc2)C1=O` (stereo unspecified), the EC50 is over 20 µM and the IC50 was found to be 0.977 µM.
For `COc1c(NS(=O)(=O)c2ccccc2)cc2c3c(cccc13)/C(=C1\Cc3cccc4c(OC)c(NS(=O)(=O)c5ccccc5)cc1c34)C2` the same measures were over 200 µM and 132 µM.
